Experimental data from patent publication US12653800B2, “Small molecule inhibitors of TLR2 signaling” (University of Maryland, Baltimore, priority 2015, dated 2026).
“Also recorded” adds a separate entry of the source.

Columns and labels:
Solubility in water = type: physicochemical; conditions: compared with C29
[1] = in vivo; stated for o-vanillin, reported previously for its isomer vanillin (Beaudry 2010); cited from earlier work
[2] = tested on: HEK-TLR2 stable transfectants; experiment: LDH release cytotoxicity assay; type: cell-based, human; conditions: C29 10 μM or 50 μM
Procedure: FIG. 7. C29 is not cytotoxic to HEK-TLR2 stable transfectants. Cells were pretreated for 1 hr with media, vehicle (65 μM NaOH), or C29 (10 μM or 50 μM) and then stimulated with P3C (200 ng/mL), P2C (200 ng/mL), or hTNF-α (300 ng/mL) for 1 hr in the presence of media, vehicle, or C29. Supernatants of cell cultures were collected and analyzed for LDH release as a measure of cell cytotoxicity with Triton X-lysed cells serving as the positive control. LDH release is representative of 1 of 2 independent experiments carried out in duplicate.
Cellular cytotoxicity was determined by measuring lactate dehydrogenase (LDH) activity released in the media after treatment with TLR agonist or TNF-α in the presence of media, vehicle (NaOH), or C29 using the CytoTox 96 nonradioactive cytotoxicity assay (Promega, Madison, WI) and quantified by measuring wavelength absorbance at 490 nm. Treatment of cells with Triton X-100 served as the positive control.

TLR2/6 = TLR2/6 (Homo sapiens, UniProt O60603); experiment: P2C-induced IL-8 mRNA (qRT-PCR) in HEK-TLR2 stable transfectants; type: cell-based; set-up: expressed in transfected cells
TNF-α-induced signaling = experiment: hTNF-α-induced IL-8 mRNA in HEK-TLR2 stable transfectants; type: cell-based, human; conditions: C29 10 μM or 50 μM, hTNF-α 300 ng/mL 1 hr
[3] = tested on: MyD88-independent pathway; experiment: IFN-β mRNA in murine macrophages stimulated with agonists that induce IFN-β; type: cell-based; conditions: C29 50 μM, 3 hrs
Procedure: FIG. 10. Examining the broader specificity of C29 for TLR2 signaling. (A, B) Total RNA was extracted from murine macrophages that had been pretreated for 1 hr with vehicle (65 μM NaOH) or C29 (50 μM) and then stimulated with P3C (50 ng/mL), P2C (100 ng/mL), zymosan (10 μg/mL), S. aureus LTA (1 μg/mL), poly(I:C) (10 μg/mL), LPS (100 ng/mL), R848 (10 μg/mL), or CpG ODN 1668 (5 μM) for 3 hrs in the presence of vehicle or C29. IL-1β and IFN-β mRNA were measured as described in FIG. 1, panel D. (C) THP-1 cells were plated in the presence of PMA (20 ng/mL) for 24 hrs and washed twice in media. Total RNA was extracted from cell cultures pretreated for 1 hr with vehicle (260 μM NaOH) or C29 (50 μM, 100 μM, or 200 μM) and then stimulated with zymosan (10 μg/mL) or S. aureus LTA (1 μg/mL) for 4 hrs in the presence of vehicle or C29. IL-1β mRNA was measured as described in FIG. 1, panel B. Quantitative real-time results represent the mean±SEM from 2 independent experiments each carried out in duplicate (*, p≤0.05; **, p≤0.01; ***, p≤0.001).
Cytokine gene expression was measured by qRT-PCR with transcript-specific primers using SYBR Green in the ABI Prism 7900 Fast Real Time PCR system (Applied Biosystems, Foster City, CA) as described (Cole L E, et al. (2006) Journal of immunology 176(11):6888-6899). […]

TLR2 = TLR2 (Homo sapiens, UniProt O60603); type: cell-based; conditions: HEK-TLR2 cells, C29 50 μM
Sequence of TLR2 (O60603 21-784 limits assumed): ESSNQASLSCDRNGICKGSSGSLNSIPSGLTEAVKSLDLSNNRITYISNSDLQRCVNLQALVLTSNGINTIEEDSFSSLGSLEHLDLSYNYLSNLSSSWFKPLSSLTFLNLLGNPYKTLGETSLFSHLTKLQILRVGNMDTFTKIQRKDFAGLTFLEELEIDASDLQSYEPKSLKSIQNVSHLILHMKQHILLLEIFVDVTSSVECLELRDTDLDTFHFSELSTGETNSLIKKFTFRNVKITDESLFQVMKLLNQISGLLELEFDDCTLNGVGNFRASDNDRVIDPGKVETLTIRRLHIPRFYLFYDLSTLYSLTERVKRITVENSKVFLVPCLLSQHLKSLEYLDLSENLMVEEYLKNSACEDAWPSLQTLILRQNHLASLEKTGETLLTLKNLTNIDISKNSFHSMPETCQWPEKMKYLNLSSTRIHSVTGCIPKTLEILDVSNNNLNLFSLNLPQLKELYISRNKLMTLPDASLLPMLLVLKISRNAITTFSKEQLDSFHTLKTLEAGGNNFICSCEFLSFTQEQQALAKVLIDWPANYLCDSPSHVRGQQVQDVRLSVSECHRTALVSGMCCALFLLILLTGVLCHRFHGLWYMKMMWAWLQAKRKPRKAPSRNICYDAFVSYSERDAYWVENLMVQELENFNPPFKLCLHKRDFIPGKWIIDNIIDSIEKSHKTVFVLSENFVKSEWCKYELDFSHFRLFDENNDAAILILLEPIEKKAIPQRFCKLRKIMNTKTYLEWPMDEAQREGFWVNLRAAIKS

Sequence of TLR2/6 (O60603 21-784): as the sequence (O60603 21-784 limits assumed) above

Row | SMILES | solubility in water (Solubility in water) | bioavailability [1] | cytotoxicity (LDH release) [2] | inhibition at 100 µM (TLR2/6; 100 μM compound, 1 hr pretreatment, P2C 5 ng/mL 1 hr, HEK-TLR2 cells, read-out: decrease of P2C-induced IL-8 mRNA) | P2C-induced IL-8 mRNA (TLR2/6; C29 10 μM or 50 μM, P2C 200 ng/mL 1 hr, HEK-TLR2 stable transfectants) | TNF-α-induced signaling (IL-8 mRNA) (TNF-α-induced signaling) | IFN-β mRNA (MyD88-independent pathway) [3] | live F. tularensis-induced IL-8 mRNA (TLR2; LVS MOI=10, 4 hrs, TLR2/6 agonist) | heat-killed Ps. aeruginosa (HKPA)-induced IL-8 mRNA (TLR2; MOI=50, 4 hrs) | heat-killed S. aureus (HKSA)-induced IL-8 mRNA (TLR2; MOI=50, 4 hrs)
1 | COc1cccc(C=O)c1O [Compound C29L, ortho-vanillin] | more soluble in water than C29 | poor bioavailability |  |  |  |  |  |  |  | 
2 | COc1cccc(/C=N/c2cccc(C(=O)O)c2C)c1O [Compound C29] |  |  | no effect; also recorded: not cytotoxic | ≥ 50% | blocked P3C- and P2C-induced IL-8 mRNA dose-dependently | no effect | no significant inhibitory effect | significantly inhibited | significantly inhibited | significantly inhibited
